Where two headings read alike, the source gives them in different places. Marks after values point to notes of the source that are not given here.
Assays:
[1] = system: female obese Zucker rats; assay: Serum lipid and glycemic control variables in chow-fed obese female Zucker rats, daily oral gavage for two weeks; assay type: in vivo, rat; conditions: for change in vivo at 100 mg/kg: Rattus norvegicus, Table 9; for Glucose / HDL-C / NEFA / Non-HDL-C / TG / Insulin: serum, mean ± SEM; for Insulin: Tables 10, 11
Procedure, shortened: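 Female obese Zucker fa rats, 10–12 wk, 400–500 g, chow-fed, dosed daily by oral gavage for 14 days in CMC/Tween 20 or ethanol/PEG-200 vehicle. After a 6-h fast, serum was sampled pre-dose, day 7 and day 14. Triglycerides, total cholesterol, NEFA and β-hydroxybutyrate were measured, plus lipoprotein cholesterol by gel-filtration profiling.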

For `CC(C)(CCCCC(=O)CCCCC(C)(C)C(=O)O)C(=O)O` [Compound 210c, 7-Oxo-2,2,12,12-tetramethyltridecanedioic acid], the melting point was 60 to 61.5 °C, the “Insulin, percent increase (+) or decrease (−) of the pretreatment control value” ([1]; 10 mg/kg daily oral, 1 wk) was “(−27) percent” and the “Non-HDL-C, percent increase (+) or decrease (−) of the pretreatment control value” ([1]; 10 mg/kg daily oral, 1 wk) was “(−35) percent”. For the same compound, the “HDL-C, percent increase (+) or decrease (−) of the pretreatment control value” ([1]; 30 mg/kg daily oral, 1 wk) was “(+156) percent”, the “NEFA, percent increase (+) or decrease (−) of the pretreatment control value” (shortened to “NEFA, percent increase (+) or decrease”) ([1]; 30 mg/kg daily oral, 1 wk) was “(−29) percent” and the “Non-HDL-C, percent increase (+) or decrease (−) of the pretreatment control value” ([1]; 30 mg/kg daily oral, 1 wk) was “(−23) percent”. The “TG, percent increase (+) or decrease (−) of the pretreatment control value” (“TG, percent increase (+) or decrease (−)” below) ([1]; 30 mg/kg daily oral, 1 wk) was “(−33) percent”, the “HDL-C, percent increase (+) or decrease (−) of the pretreatment control value” ([1]; 30 mg/kg daily oral, 2 wk) was “(+147) percent” and the “HDL-C, percent increase (+) or decrease (−) of the pretreatment control value” ([1]; 100 mg/kg daily oral, 1 wk) was “(+174) percent”. For the same compound, the “NEFA, percent increase (+) or decrease” value ([1]; 100 mg/kg daily oral, 1 wk) was “(−33) percent”, the “Non-HDL-C, percent increase (+) or decrease (−) of the pretreatment control value” ([1]; 100 mg/kg daily oral, 1 wk) was “(−42) percent” and the “TG, percent increase (+) or decrease (−)” value ([1]; 100 mg/kg daily oral, 1 wk) was “(−60) percent”. The “HDL-C, percent increase (+) or decrease (−) of the pretreatment control value” ([1]; 100 mg/kg daily oral, 2 wk) was “(+179) percent”, the “NEFA, percent increase (+) or decrease” value ([1]; 100 mg/kg daily oral, 2 wk) was “(−45) percent” and the “Non-HDL-C, percent increase (+) or decrease (−) of the pretreatment control value” ([1]; 100 mg/kg daily oral, 2 wk) was “(−29) percent”. For the same compound, the “TG, percent increase (+) or decrease (−)” value ([1]; 100 mg/kg daily oral, 2 wk) was “(−54) percent”, the change in vivo at 100 mg/kg ([1]; 168 h, 100 mg/kg daily oral, 1 wk, read-out: HDL-Cholesterol, Percent Change from Pre-Treatment) was 54% and the change in vivo at 100 mg/kg ([1]; 168 h, 100 mg/kg daily oral, 1 wk, read-out: NonHDL-Cholesterol, Percent Change from Pre-Treatment) was -62%. The change in vivo at 100 mg/kg ([1]; 168 h, 100 mg/kg daily oral, 1 wk, read-out: TG, Percent Change from Pre-Treatment) was -74%, the change in vivo at 100 mg/kg ([1]; 336 h, 100 mg/kg daily oral, 2 wk, read-out: HDL-Cholesterol, Percent Change from Pre-Treatment) was 78% and the change in vivo at 100 mg/kg ([1]; 336 h, 100 mg/kg daily oral, 2 wk, read-out: NonHDL-Cholesterol, Percent Change from Pre-Treatment) was -41%. It also gave a change in vivo at 100 mg/kg ([1]; 336 h, 100 mg/kg daily oral, 2 wk, read-out: TG, Percent Change from Pre-Treatment) of -69%, a Glucose ([1]; 3 mg/kg daily oral, 1 wk) of 99 ± 4 mg/dL and an HDL-C ([1]; 3 mg/kg daily oral, 1 wk) of 36 ± 1 mg/dL. The NEFA ([1]; 3 mg/kg daily oral, 1 wk) was 1.2 ± 0.16 mg/dL, the Non-HDL-C ([1]; 3 mg/kg daily oral, 1 wk) was 24 ± 2 mg/dL and the TG ([1]; 3 mg/kg daily oral, 1 wk) was 775 ± 92 mg/dL. The Insulin ([1]; 3 mg/kg daily oral, 1 wk) was 10.7 ± 0.8 ng/dL, the Glucose ([1]; 3 mg/kg daily oral, 2 wk) was 103 ± 3 mg/dL and the HDL-C ([1]; 3 mg/kg daily oral, 2 wk) was 33 ± 1 mg/dL. For the same compound, the NEFA ([1]; 3 mg/kg daily oral, 2 wk) was 1.5 ± 0.27 mg/dL, the Non-HDL-C ([1]; 3 mg/kg daily oral, 2 wk) was 24 ± 3 mg/dL and the TG ([1]; 3 mg/kg daily oral, 2 wk) was 857 ± 103 mg/dL. The Insulin ([1]; 3 mg/kg daily oral, 2 wk) was 8.6 ± 0.5 ng/dL, the Glucose ([1]; 10 mg/kg daily oral, 1 wk) was 105 ± 3 mg/dL and the HDL-C ([1]; 10 mg/kg daily oral, 1 wk) was 47 ± 7 mg/dL. For the same compound, the NEFA ([1]; 10 mg/kg daily oral, 1 wk) was 0.92 ± 0.09, the Non-HDL-C ([1]; 10 mg/kg daily oral, 1 wk) was 26 ± 4^a mg/dl and the TG ([1]; 10 mg/kg daily oral, 1 wk) was 692 ± 180 mg/dL. The Insulin ([1]; 10 mg/kg daily oral, 1 wk) was 7.7 ± 1.0^a ng/dl, the Glucose ([1]; 10 mg/kg daily oral, 2 wk) was 113 ± 3 mg/dL and the HDL-C ([1]; 10 mg/kg daily oral, 2 wk) was 39 ± 5 mg/dL. For the same compound, the NEFA ([1]; 10 mg/kg daily oral, 2 wk) was 1.5 ± 0.28 mg/dL, the Non-HDL-C ([1]; 10 mg/kg daily oral, 2 wk) was 27 ± 4 mg/dL and the TG ([1]; 10 mg/kg daily oral, 2 wk) was 814 ± 205 mg/dL. The Insulin ([1]; 10 mg/kg daily oral, 2 wk) was 8.9 ± 1.3 ng/dL, the Glucose ([1]; 30 mg/kg daily oral, 1 wk) was 115 ± 4 mg/dL and the HDL-C ([1]; 30 mg/kg daily oral, 1 wk) was 53 ± 8^a mg/dl. For the same compound, the NEFA ([1]; 30 mg/kg daily oral, 1 wk) was 1.0 ± 0.11, the Non-HDL-C ([1]; 30 mg/kg daily oral, 1 wk) was 37 ± 4^a mg/dl and the TG ([1]; 30 mg/kg daily oral, 1 wk) was 826 ± 92^a mg/dl. The Insulin ([1]; 30 mg/kg daily oral, 1 wk) was 9.2 ± 1.3 ng/dL, the Glucose ([1]; 30 mg/kg daily oral, 2 wk) was 118 ± 8 mg/dL and the HDL-C ([1]; 30 mg/kg daily oral, 2 wk) was 50 ± 9^a mg/dl. It also gave an NEFA ([1]; 30 mg/kg daily oral, 2 wk) of 1.1 ± 0.20 mg/dL, a Non-HDL-C ([1]; 30 mg/kg daily oral, 2 wk) of 43 ± 5 mg/dL and a TG ([1]; 30 mg/kg daily oral, 2 wk) of 962 ± 118 mg/dL. The Insulin ([1]; 30 mg/kg daily oral, 2 wk) was 8.5 ± 1.8 ng/dL, the Glucose ([1]; 100 mg/kg daily oral, 1 wk) was 113 ± 6 mg/dL and the HDL-C ([1]; 100 mg/kg daily oral, 1 wk) was 66 ± 9^a mg/dl. For the same compound, the NEFA ([1]; 100 mg/kg daily oral, 1 wk) was 0.81 ± 0.07, the Non-HDL-C ([1]; 100 mg/kg daily oral, 1 wk) was 18 ± 3^a mg/dl and the TG ([1]; 100 mg/kg daily oral, 1 wk) was 383 ± 49^a mg/dl. For the same compound, the Insulin ([1]; 100 mg/kg daily oral, 1 wk) was 9.0 ± 1.0 ng/dL, the Glucose ([1]; 100 mg/kg daily oral, 2 wk) was 122 ± 7 mg/dL and the HDL-C ([1]; 100 mg/kg daily oral, 2 wk) was 68 ± 10^a mg/dl. For the same compound, the NEFA ([1]; 100 mg/kg daily oral, 2 wk) was 0.66 ± 0.06, the Non-HDL-C ([1]; 100 mg/kg daily oral, 2 wk) was 22 ± 3^a mg/dl and the TG ([1]; 100 mg/kg daily oral, 2 wk) was 440 ± 58^a mg/dl. The Insulin ([1]; 100 mg/kg daily oral, 2 wk) was 9.5 ± 0.9 ng/dL.

— patent publication US7304093B2, “Ketone compounds and compositions for cholesterol management and related uses” (Esperion Therapeutics, Inc., priority 2000, dated 2007)
